Measurements as given in patent US20120294826A1, “METHODS, KITS AND COMPOSITIONS FOR AMELIORATING ADVERSE EFFECTS ASSOCIATED WITH TRANSFUSION OF AGED RED BLOOD CELLS” (priority 2009, published 2012).

Experiments:
E. coli = assay: In vitro bacterial growth in plasma from transfused mice; type: cell-based
Procedure: Results shown in FIG. 15A are representative of two experiments. C57BL/6 mice were infused with a sub-clinical dose of LPS (E. coli 0111:B4; 30 μg per mouse by tail vein injection) followed by transfusion of 400 μL of fresh RBCs or stored RBCs. Mice were sacrificed at 24-hour post-transfusion and plasma cytokines measured (n=5 per group). *P=0.008, **P=0.003 as compared to mice infused LPS+ stored RBCs. To obtain the results shown in FIG. 15B, plasma (100 μL) was obtained from mice 2-hours post-transfusion with 400 μL of fresh RBCs (n=15), stored RBCs (n=24), stored RBC-derived supernatant (n=12), washed stored RBCs (n=13), or ghosts prepared from stored RBCs (n=8). Plasma was also obtained from control untransfused mice (n=14) or 24-hours post-transfusion with stored RBCs (n=8). Samples were incubated at 37° C. with shaking with about 1×10^6 CFU of E. coli, as labeled. Bacterial growth was monitored every 30 minutes by absorbance at 600 nm for up to 5 hours. […] To obtain the results shown in FIG. 15C, pooled plasma samples (100 μL) from mice 2 hours after transfusion with 400 μL of fresh RBCs or stored RBCs were supplemented with either ferric citrate (20 μM), sodium citrate (20 μM), bovine serum albumin (BSA; 80 μM), or protoporphyrin IX (20 μM), and then incubated at 37° C. with shaking with ˜1×10^6 CFU of E. coli. Bacterial growth was monitored every 30 minutes by absorbance at 600 nm for up to 5 hours in replicates of 5 per group. […] To obtain the results shown in FIG. 15D, pooled plasma (n=4) were incubated with the iron chelator, DFO (20 μM), or with the iron-chelated form of DFO, ferroxamine (FO) (20 μM) and inoculated with E. coli as shown for the previous experiment. […] To obtain the results shown in FIG. 15E, pooled plasma (n=5) was incubated with the iron chelator, 2,2′-dipyridyl (400 μM), with or without ferric citrate (133 μM) and inoculated with E. coli, as shown for the previous experiment. […] Results are representative of at least 2 experiments and are shown as mean (±SEM). Note that the absence of an error bar is indicative of highly reproducible replicates with pooled plasma.
A pathogenic strain of E. coli, obtained from an anonymous patient with a urinary tract infection, was used. For each experiment, a sample from a frozen stock of this E. coli was inoculated into Nutrient Broth (Difco, BD Biosciences) and grown to mid-log phase (about 3 hours). Bacteria were then washed twice in PBS and re-suspended to about 200,000 colony forming units (CFU)/μL. Five microliters of bacterial suspension were then added to 100 μL of heparinized plasma in a 96-well EIA/RIA plate (Costar, Sigma). Bacterial growth was measured by absorbance at 600 nm. In some experiments, 20 μM of ferric citrate or sodium citrate (Sigma), bovine serum albumin, 2,2′-dipyridyl (all from Sigma-Aldrich), protoporphyrin IX (Frontier Scientific, Logan, Utah), or DFO were added to plasma before bacterial inoculation.
Significance between two means was calculated using a two-tailed Mann-Whitney U test. Significance relevant to bacterial growth in vitro was determined by converting each growth curve to an area under the curve (AUC) value followed by a 2-tailed Mann-Whitney U test to compare mean AUC for each group. A value for P less than 0.05 was considered significant. Statistical analysis was performed using Prism 5 (GraphPad Software, Inc., La Jolla, Calif.).

[1] = in vivo; cited from earlier work
[2] = tested on: pro-inflammatory response induced by stored RBC transfusions; assay: DFO or FO infusion immediately before stored RBC transfusion, plasma cytokine/chemokine levels (FIG. 16A, 19); type: in vivo, mice; settings: 2 hours
Procedure: To obtain the results shown in FIG. 16A, mice were pretreated with a PBS vehicle control (n=28) or with 3 mg of DFO, with (n=15) or without (n=31) the addition of equimolar ferric citrate, immediately before transfusion with stored RBCs (400 μL). Mice were sacrificed 2 hours after transfusion, and plasma cytokine levels were measured; *P<0.05; **P<0.01; ***P<0.001 compared with mice infused with PBS vehicle and transfused stored RBCs. To obtain the results shown in FIG. 16B, bioluminescence was quantified for 24 hours after transfusion over the hepatosplenic region of SAA1-luciferase reporter mice transfused with 200 μL of fresh RBCs (n=3; •), the PBS vehicle control and stored RBCs (n=3; ▪), or 3 mg of DFO and stored RBCs (n=6; ▴); P=0.095 at 4 and 6 hours after transfusion comparing vehicle-treated and DFO-treated mice. […]
Mice were untreated or pretreated with 3 mg of DFO immediately before stored RBC transfusion (400 μL; n=14 per group). Mice were sacrificed 2-hours post-transfusion and plasma cytokine/chemokine levels measured. […]
RBCs (200 or 400 μL at 17.0-17.5 g/dL of hemoglobin; 1 or 2 equivalent human units, respectively) were transfused through the retro-orbital plexus of isoflurane-anesthetized mice. […] Survival was calculated by comparing the ratio of Dil- to DiO-labeled RBCs in the sample to the ratio in the transfuse itself. […]

TNF-α = settings: LPS-challenged mice; reference [119]; cited from earlier work
[3] = added to pooled plasma from mice transfused with fresh RBCs, 20 μM (bovine serum albumin 80 μM)

For `c1ccc(-c2ccccn2)nc1` [2,2′-dipyridyl], the bacterial growth (E. coli; 2,2′-dipyridyl 400 μM in pooled plasma from mice transfused with stored RBCs) was “greater inhibition of bacterial growth” and the “inhibitory effect on bacterial growth” value (E. coli; 2,2′-dipyridyl preincubated with a one-third molar ratio of ferric citrate (133 μM)) was “abrogated”.
In the case of “bovine serum albumin: bovine serum albumin control supplement”, the bacterial growth (E. coli; [3]) is reported as “not”.
For `O=C(O)c1ccc(-n2nc(-c3ccccc3O)nc2-c2ccccc2O)cc1` [deferasirox], the t1/2 [1] is given as 8 to 16 h.
For `CC(=O)N(O)CCCCCNC(=O)CCC(=O)N(O)CCCCCNC(=O)CCC(=O)N(O)CCCCCN` [DFO, deferoxamine], the “plasma IL-6 levels” value ([2]; 3 mg (about 120 mg/kg) DFO i.v. immediately before stored RBCs, mean±s.e.m., without DFO 212.8±30.8, P=0.005) is given as 98.4 ± 10.1 pg/mL and the t1/2 [1] is given as 6 h.
With ferric citrate [iron citrate] the bacterial growth (E. coli; [3]) was “promoted to a similar level as in plasma from mice transfused with stored RBCs”.
In the case of `CC(=O)N([O-])CCCCCNC(=O)CCC(=O)N([O-])CCCCCNC(=O)CCC(=O)N([O-])CCCCCN.[Fe+3]` [FO, ferroxamine], the proinflammatory cytokine response ([2]; 3 mg DFO, or FO (equimolar DFO and ferric citrate), before stored RBCs (400 μL)) is listed as “as effective as DFO”, the TNF-α levels (TNF-α) is listed as “reduced TNF-α levels to a similar extent” and the bacterial growth (E. coli; 20 μM added to pooled plasma from mice transfused with stored RBCs, absorbance at 600 nm up to 5 hours) is listed as “prevented the inhibition of bacterial growth”.
In the case of `O=C([O-])CC(O)(CC(=O)[O-])C(=O)[O-].[Na+].[Na+].[Na+]` [sodium citrate], the bacterial growth (E. coli; [3]) is reported as “not”.
